Measurements from patent US20220195461A1, “METHODS AND COMPOSITIONS FOR TRANSGENE EXPRESSION” (priority 2019, published 2022).

System: CF (HBE and HTE, dF508/dF508, Passage 0) cells
Experiment: LDH activity (toxicity) of AV.TL65 plus proteasome inhibitor versus AAV alone
Format: cell-based, human
Details: for LDH (toxicity) activity compared to AAV without a proteasome inhibitor: augmenter + AV.TL65-gLuc-mCherry, 4 days after infection (FIG. 1B); for toxicity of the enhancement: augmenter combined with AV.TL65Luciferase-mCherry, ALI HBE cultures; for LDH relative to baseline: passage 0 (P0) cells
Text: FIGS. 1A and 1B are a series of graphs showing the ratio of luciferase activity in cells treated with AV.TL65+proteasome inhibitor (PI) versus AAV alone (FIG. 1A) and the ratio of LDH activity in cells treated with AV.TL65+PI versus AAV alone (FIG. 1B). […] Relative Luminescence Units in CF HBE treated with AV.TL65 with PI exceeded 200-fold of AV.TL65 without PI. Toxicity of AV.TL65 with PI as measured by LDH activity was mostly below 150% of AV.TL65 without PI.
We have generated a novel AAV vector featuring a capsid that is highly efficient at transducing human airway epithelium in the apical membrane. Specifically, we have used AV.TL65-SP183-CFTRΔR to deliver an R-domain-partially-deleted CFTR minigene and AV.TL65Luciferase-mCherry, a dual reporter vector, to express luciferase and fluorescent mCherry protein. The AV.TL65-SP183-CFTRΔR rAAV vector included a polynucleotide comprising: a 5′ AAV ITR comprising the sequence of SEQ ID NO:15, an F5 enhancer comprising the sequence of SEQ ID NO:14 (which may include a 5′ EcoRI site and a 3′ XhoI site, as in SEQ ID NO:1), a tg83 promoter comprising the sequence of SEQ ID NO:2, a 5′ UTR comprising the sequence of SEQ ID NO:3, a hCFTRΔR minigene comprising the sequence of SEQ ID NO:4, a 3′ UTR comprising the sequence of SEQ ID NO:5, a s-pA comprising the sequence of SEQ ID NO:6, and a 3′ AAV ITR comprising the sequence of SEQ ID NO:16. For example, the packaged polynucleotide may include the sequence of SEQ ID NO:17. […] We have shown that combining AV.TL65Luciferase-mCherry with doxorubicin or idarubicin provides non-toxic enhancement of luciferase expression by more than 600-fold of air-liquid interface (ALI) human bronchial epithelial (HBE) cultures from 5 separate CF (homozygous dF508/dF508 CFTR) and non-CF donors compared to AV.TL65Luciferase-mCherry without proteasome inhibitor. In another experiment, doxorubicin and idarubicin+AV.TL65-gLuc-mCherry improved transduction over AAV without a proteasome inhibitor by over 200-fold (FIG. 1A, dashed line). Doxorubicin added to AV.TL65-gLuc-mCherry but not idarubicin had less than 150% LDH (toxicity) activity compared to AAV without a proteasome inhibitor (FIG. 1B; dashed line). Transduction efficiency gains in passage 0 (PO) cells were well above 200-fold better with doxorubicin and idarubicin with LDH <1.5× baseline for doxorubicin and >1.5× baseline for idarubicin.

Row | Structure (SMILES) | LDH (toxicity) activity compared to AAV without a proteasome inhibitor | toxicity of the enhancement | LDH relative to baseline [× baseline]
1 | COc1cccc2c1C(=O)c1c(O)c3c(c(O)c1C2=O)C[C@@](O)(C(=O)CO)C[C@@H]3O[C@H]1C[C@H](N)[C@H](O)[C@H](C)O1 [doxorubicin] | less than 150% | non-toxic | < 1.5
2 | CC(=O)[C@]1(O)Cc2c(O)c3c(c(O)c2[C@@H](O[C@H]2C[C@H](N)[C@H](O)[C@H](C)O2)C1)C(=O)c1ccccc1C3=O [idarubicin] | ≥ 150% | non-toxic | > 1.5
